biological target: T1, GR (Homo sapiens, UniProt P04150); assay: In Vitro GR Luciferase Reporter Assay (antagonist mode, CHO-K1-GR-MMTV-Luc reporter cells); type: cell-based; conditions: antagonist assay with 10 nM Dexamethasone, 18-24 hours
T1 construct: expressed in transfected cells; host or cells: CHO-K1
T1 sequence (P04150 1-777): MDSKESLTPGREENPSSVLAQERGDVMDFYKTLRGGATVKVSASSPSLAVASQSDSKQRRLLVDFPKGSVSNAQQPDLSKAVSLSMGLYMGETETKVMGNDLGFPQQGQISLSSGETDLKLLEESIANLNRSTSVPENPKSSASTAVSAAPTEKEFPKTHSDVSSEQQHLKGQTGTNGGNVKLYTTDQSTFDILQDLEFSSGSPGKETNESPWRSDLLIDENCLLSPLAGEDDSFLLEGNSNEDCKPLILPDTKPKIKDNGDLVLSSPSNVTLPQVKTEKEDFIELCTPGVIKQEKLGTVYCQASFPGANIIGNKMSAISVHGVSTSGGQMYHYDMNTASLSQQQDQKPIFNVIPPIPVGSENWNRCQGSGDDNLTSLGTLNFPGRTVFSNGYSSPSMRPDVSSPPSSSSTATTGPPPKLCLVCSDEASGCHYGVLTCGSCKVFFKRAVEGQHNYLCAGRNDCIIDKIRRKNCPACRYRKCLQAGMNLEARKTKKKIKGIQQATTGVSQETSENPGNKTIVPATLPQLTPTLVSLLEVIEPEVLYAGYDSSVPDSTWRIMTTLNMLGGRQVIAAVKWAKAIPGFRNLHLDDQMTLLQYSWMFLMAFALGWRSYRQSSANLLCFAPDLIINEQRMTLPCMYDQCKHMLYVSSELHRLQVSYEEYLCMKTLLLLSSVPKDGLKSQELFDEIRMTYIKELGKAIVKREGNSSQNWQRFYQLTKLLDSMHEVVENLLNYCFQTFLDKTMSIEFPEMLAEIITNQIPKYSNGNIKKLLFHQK
Outline: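 Antagonist mode: compounds (8 serial 1:5 dilutions) added to GR-MMTV-luciferase CHO-K1 reporter cells co-exposed to 10 nM dexamethasone final, in phenol red-free DMEM plus 10% CSS. After roughly 18-24 h at 37° C, OneGlo luminescence read and IC50 calculated.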

| IC50 [nM] | Structure (SMILES) |
| --- | --- |
| ≤ 100 | O=C(c1ccccc1)N(C1CC1)[C@H]1CCC2=Cc3c(cnn3-c3ccc(F)cc3)C[C@]2(C(=O)c2ccccn2)C1 [Example 6, N-Cyclopropyl-N-((4aS,6S)-1-(4-fluorophenyl)-4a-picolinoyl-4,4a,5,6,7,8-hexahydro-1H-benzo[f]indazol-6-yl)benzamide] |
| ≤ 100 | CN([C@H]1CCC2=Cc3c(cnn3-c3ccc(F)cc3)C[C@]2(C(=O)c2cc(C(F)(F)F)ccn2)C1)S(=O)(=O)c1cnn(CC2CC2)c1 [Example 108, 1-(cyclopropylmethyl)-N-((4aS,6S)-1-(4-fluorophenyl)-4a-(4-(trifluoromethyl)picolinoyl)-4,4a,5,6,7,8-hexahydro-1H-benzo[f]indazol-6-yl)-N-methyl-1H-pyrazole-4-sulfonamide] |
| ≤ 100 | O=C(c1cc(C(F)(F)F)ccn1)[C@]12Cc3cnn(-c4ccc(F)cc4)c3C=C1CC[C@H](S(=O)(=O)c1cnn(CC(F)(F)F)c1)C2 [Example 75, ((4aS,6S)-1-(4-fluorophenyl)-6-((1-(2,2,2-trifluoroethyl)-1H-pyrazol-4-yl)sulfonyl)-1,4,5,6,7,8-hexahydro-4aH-benzo[f]indazol-4a-yl)(4-(trifluoromethyl)pyridin-2-yl)methanone] |
| ≤ 100 | CN([C@H]1CCC2=Cc3c(cnn3-c3ccc(F)cc3)C[C@]2(C(=O)c2ccccn2)C1)S(=O)(=O)c1cccc(C(F)(F)F)c1 [Example 83, N-((4aS,6S)-1-(4-fluorophenyl)-4a-picolinoyl-4,4a,5,6,7,8-hexahydro-1H-benzo[f]indazol-6-yl)-N-methyl-3-(trifluoromethyl)benzenesulfonamide] |
| ≤ 100 | Cc1ccc(C(=O)[C@]23Cc4cnn(-c5ccc(F)cc5)c4C=C2CC[C@H](S(=O)(=O)c2cccc(C(F)(F)F)c2)C3)nc1 [Example 31, ((4aS,6S)-1-(4-fluorophenyl)-6-((3-(trifluoromethyl)phenyl)sulfonyl)-1,4,5,6,7,8-hexahydro-4aH-benzo[f]indazol-4a-yl)(5-methylpyridin-2-yl)methanone] |
| ≤ 100 | CN([C@H]1CCC2=Cc3c(cnn3-c3ccc(F)cc3)C[C@]2(C(=O)c2ccccn2)C1)S(=O)(=O)c1cccc(Cl)c1 [Example 82, 3-chloro-N-((4aS,6S)-1-(4-fluorophenyl)-4a-picolinoyl-4,4a,5,6,7,8-hexahydro-1H-benzo[f]indazol-6-yl)-N-methylbenzenesulfonamide] |
| 100 to 1000 | CN([C@H]1CCC2=Cc3c(cnn3-c3ccc(F)cc3)C[C@]2(C(=O)c2cc(C(F)(F)F)ccn2)C1)S(=O)(=O)c1cnn(C)c1 [Example 100, N-((4aS,6S)-1-(4-fluorophenyl)-4a-(4-(trifluoromethyl)picolinoyl)-4,4a,5,6,7,8-hexahydro-1H-benzo[f]indazol-6-yl)-N,1-dimethyl-1H-pyrazole-4-sulfonamide] |

same assay, conditions: antagonist mode, 10 nM Dexamethasone

| IC50 [nM] | Structure (SMILES) |
| --- | --- |
| ≤ 100 | CCn1ncc(S(=O)(=O)[C@H]2CCC3=Cc4c(cnn4-c4ccc(F)cc4)C[C@]3(C(=O)c3ccc(C4CC4)cn3)C2)n1 [Example 123, (5-cyclopropylpyridin-2-yl)((4aS,6S)-6-((2-ethyl-2H-1,2,3-triazol-4-yl)sulfonyl)-1-(4-fluorophenyl)-1,4,5,6,7,8-hexahydro-4aH-benzo[f]indazol-4a-yl)methanone] |
| ≤ 100 | C[C@]1(O)C[C@@H](N([C@H]2CCC3=Cc4c(cnn4-c4ccc(F)cc4)C[C@]3(C(=O)c3cc(F)ccn3)C2)S(=O)(=O)c2ccc(F)cc2)C1 [Example 343, 4-fluoro-N-((4aS,6S)-1-(4-fluorophenyl)-4a-(4-fluoropicolinoyl)-4,4a,5,6,7,8-hexahydro-1H-benzo[f]indazol-6-yl)-N-((1s,3R)-3-hydroxy-3-methylcyclobutyl)benzenesulfon-amide] |
| ≤ 100 | CN([C@H]1CCC2=Cc3c(cnn3-c3ccc(F)cc3)C[C@]2(C(=O)c2nccs2)C1)S(=O)(=O)c1cnn(C)n1 [Example 161, N-((4aS,6S)-1-(4-fluorophenyl)-4a-(thiazole-2-carbonyl)-4,4a,5,6,7,8-hexahydro-1H-benzo[f]indazol-6-yl)-N,2-dimethyl-2H-1,2,3-triazole-4-sulfonamide] |
| ≤ 100 | Cn1cnc(S(=O)(=O)N(CCF)[C@H]2CCC3=Cc4c(cnn4-c4ccc(F)cc4)C[C@]3(C(=O)c3cc(C(F)(F)F)ccn3)C2)n1 [Example 385, N-(2-fluoroethyl)-N-((4aS,6S)-1-(4-fluorophenyl)-4a-(4-(trifluoromethyl)picolinoyl)-4,4a,5,6,7,8-hexahydro-1H-benzo[f]indazol-6-yl)-1-methyl-1H-1,2,4-triazole-3-sulfonamide] |
| ≤ 100 | CN([C@H]1CCC2=Cc3c(cnn3-c3ccc(F)cc3)C[C@]2(C(=O)c2ccc(C3CC3)cn2)C1)S(=O)(=O)c1ccn(C)n1 [Example 135, N-((4aS,6S)-4a-(5-cyclopropylpicolinoyl)-1-(4-fluorophenyl)-4,4a,5,6,7,8-hexahydro-1H-benzo[f]indazol-6-yl)-N,1-dimethyl-1H-pyrazole-3-sulfonamide] |
| ≤ 100 | CN(c1ccc(F)cc1)S(=O)(=O)[C@H]1CCC2=Cc3c(cnn3-c3ccc(F)cc3)C[C@]2(C(=O)c2ccccn2)C1 [Example 137, (4aS,6S)-N,1-bis(4-fluorophenyl)-N-methyl-4a-picolinoyl-4,4a,5,6,7,8-hexahydro-1H-benzo[f]indazole-6-sulfonamide] |
| ≤ 100 | C[C@H]([C@H]1CCC2=Cc3c(cnn3-c3ccc(F)cc3)C[C@]2(C(=O)c2cc(C(F)(F)F)ccn2)C1)S(=O)(=O)c1cnn(C)c1 (single isomer, unassigned) [Example 121, ((4aR,6S)-1-(4-Fluorophenyl)-6-((R)-1-((1-methyl-1H-pyrazol-4-yl)sulfonyl)ethyl)-1,4,5,6,7,8-hexahydro-4aH-benzo[f]indazol-4a-yl)(4-(trifluoromethyl)pyridin-2-yl)methanone or ((4aR,6S)-1-(4-fluorophenyl)-6-((S)-1-((1-methyl-1H-pyrazol-4-yl)sulfonyl)ethyl)-1,4,5,6,7,8-hexahydro-4aH-benzo[f]indazol-4a-yl)(4-(trifluoromethyl)pyridin-2-yl)methanone] |
| ≤ 100 | C[C@H]([C@H]1CCC2=Cc3c(cnn3-c3ccc(F)cc3)C[C@]2(C(=O)c2cc(C(F)(F)F)ccn2)C1)S(=O)(=O)c1cnn(C)c1 (single isomer, unassigned) [Example 120, ((4aR,6S)-1-(4-Fluorophenyl)-6-((R)-1-((1-methyl-1H-pyrazol-4-yl)sulfonyl)ethyl)-1,4,5,6,7,8-hexahydro-4aH-benzo[f]indazol-4a-yl)(4-(trifluoromethyl)pyridin-2-yl)methanone or ((4aR,6S)-1-(4-fluorophenyl)-6-((S)-1-((1-methyl-1H-pyrazol-4-yl)sulfonyl)ethyl)-1,4,5,6,7,8-hexahydro-4aH-benzo[f]indazol-4a-yl)(4-(trifluoromethyl)pyridin-2-yl)methanone] |
| ≤ 100 | CN([C@H]1CCC2=Cc3c(cnn3-c3ccc(F)cc3)C[C@]2(C(=O)c2cc(C3CC3)ccn2)C1)S(=O)(=O)c1cnn(C)n1 [Example 149, N-((4aS,6S)-4a-(4-cyclopropylpicolinoyl)-1-(4-fluorophenyl)-4,4a,5,6,7,8-hexahydro-1H-benzo[f]indazol-6-yl)-N,2-dimethyl-2H-1,2,3-triazole-4-sulfonamide] |
| ≤ 100 | CCN([C@H]1CCC2=Cc3c(cnn3-c3ccc(F)cc3)C[C@]2(C(=O)c2ncc(C(F)(F)F)s2)C1)S(=O)(=O)c1cncn1C [Example 376, N-ethyl-N-((4aS,6S)-1-(4-fluorophenyl)-4a-(5-(trifluoromethyl)thiazole-2-carbonyl)-4,4a,5,6,7,8-hexahydro-1H-benzo[f]indazol-6-yl)-1-methyl-1H-imidazole-5-sulfonamide] |
| ≤ 100 | Cn1ccc(S(=O)(=O)N(C2CC2)[C@H]2CCC3=Cc4c(cnn4-c4ccc(F)cc4)C[C@]3(C(=O)c3nccs3)C2)n1 [Example 147, N-cyclopropyl-N-((4aS,6S)-1-(4-fluorophenyl)-4a-(thiazole-2-carbonyl)-4,4a,5,6,7,8-hexahydro-1H-benzo[f]indazol-6-yl)-1-methyl-1H-pyrazole-3-sulfonamide] |
| ≤ 100 | Cn1cc(S(=O)(=O)[C@H]2CCC3=Cc4c(cnn4-c4ccc(F)cc4)C[C@]3(C(=O)c3cc(Cl)ccn3)C2)cn1 [Example 317, (4-chloropyridin-2-yl)((4aS,6S)-1-(4-fluorophenyl)-6-((1-methyl-1H-pyrazol-4-yl)sulfonyl)-1,4,5,6,7,8-hexahydro-4aH-benzo[f]indazol-4a-yl)methanone] |
| ≤ 100 | O=C(c1cc(C(F)(F)F)ccn1)[C@]12Cc3cnn(-c4ccc(F)cc4)c3C=C1CC[C@H](N(C1CC1)S(=O)(=O)c1ccc(C(F)(F)F)nc1)C2 [Example 285, N-cyclopropyl-N-((4aS,6S)-1-(4-fluorophenyl)-4a-(4-(trifluoromethyl)picolinoyl)-4,4a,5,6,7,8-hexahydro-1H-benzo[f]indazol-6-yl)-6-(trifluoromethyl)pyridine-3-sulfonamide] |

Reference: US20210122730A1, “GLUCOCORTICOID RECEPTOR MODULATORS” (ORIC Pharmaceuticals, Inc., priority 2017, published 2021)
